Reference: PubChem BioAssay (NCI)
Values joined by “and” are separate entries in the source; they are usually repeats but may differ in a detail not shown here. Identical values can stand only once.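 1) Cells in 96-well plates. 2) Compound, 48 h, 5 concentrations. 3) Linear interpolation between surrounding doses. 4) Unreached endpoint = highest concentration. GI50 is the concentration that inhibits growth by half. At the TGI there is no net growth.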 *1 amine or outer side, *2 acyl side, *3 side chain or, on linkers, in order; H or OH if unused. Where a SMILES comes first, the peptide text is derived from it. Bridges are numbered along the chain shown (N, C = ends). Roman numbers before positions name the chains, in order. [ ]: non-standard residue; d: D form. Actinocin(9to1) = Cc1c2oc3c(C)ccc(C(=O)[*:1])c3nc-2c(C(=O)[*:2])c(N)c1=O; NMeV = CN[CH](C(=O)O)C(C)C; Sar = CNCC(=O)O

What was measured:
Test in all cases: NCI tumour cell line growth inhibition, 48 h
[1] = test system: NCI-H23 lung
[2] = test system: NCI/ADR-RES ovarian
[3] = test system: MCF7 breast
[4] = test system: K-562 leukemia
[5] = test system: A498 renal
[6] = test system: T-47D breast
[7] = test system: SK-MEL-2 melanoma
[8] = test system: HOP-18 NSCLC
[9] = test system: LXFL 529 NSCLC
[10] = test system: DMS 114 small cell lung
[11] = test system: M19-MEL melanoma
[12] = test system: SNB-78 CNS
[13] = test system: DMS 273 small cell lung
[14] = test system: KM20L2 colon
[15] = test system: DU-145 prostate

Structure (SMILES) | TGI [1] | GI50 [2] | TGI [2] | TGI [3] | TGI [4] | TGI [5] | TGI [6] | TGI [7] | TGI [8] | TGI [9] | TGI [10] | TGI [11] | TGI [12] | TGI [13] | TGI [14] | TGI [15] | GI50 [4] | GI50 [1] | GI50 [3]
Cc1c2oc3c(C)ccc(C(=O)NC4C(=O)NC(Cc5ccccc5)C(=O)N5CCCC5C(=O)N(C)CC(=O)N(C)C(C(C)C)C(=O)OC4C)c3nc-2c(C(=O)NC2C(=O)NC(Cc3ccccc3)C(=O)N3CCCC3C(=O)N(C)CC(=O)N(C)C(C(C)C)C(=O)OC2C)c(N)c1=O (centres undefined) (I: TFP[Sar][NMeV] / II: TFP[Sar][NMeV]; ester I:1-I:C, II:1-II:C; linker I:N-II:N via Actinocin(9to1); configuration not given here) | 0.0202 µM and 0.0398 µM | 0.877 µM | > 100 µM | > 100 µM | 0.00316 µM | 0.0244 µM | 0.0647 µM | – | – | – | – | – | – | – | – | – | – | – | –
O=C(NNC(=S)Nc1ccccc1)c1nsc2ccccc12 | > 100 µM | – | – | – | > 100 µM | – | – | > 100 µM | 41.4 µM | > 100 µM | 70 µM | > 100 µM | > 100 µM | 69.8 µM | > 100 µM | – | – | – | –
CC1C(NNC(N)=O)Oc2cc3c(cc2C1c1ccccc1O)OCO3 (centres undefined) | > 100 µM | – | – | > 100 µM | 64.1 µM | 68.9 µM | > 100 µM | > 100 µM | – | – | – | – | – | – | – | > 100 µM | – | – | –
CC(C)(C)c1ccc(C(O)CCCN2CCC(C(O)(c3ccccc3)c3ccccc3)CC2)cc1 (centres undefined) | – | – | – | – | 5.14 µM | – | – | – | – | – | – | – | – | – | – | – | 2.18 µM | – | –
CN1CCN(Cc2c[nH]c3c2C(=O)c2c(c(O)c4ccccc4c2O)C3=O)CC1 | 26.9 µM | 11.7 µM | 25.5 µM | 17.7 µM | > 100 µM | – | – | – | – | – | – | – | – | – | – | – | 2.82 µM | 12.9 µM | 5.15 µM
